Where a name gives a salt, the structure may show the parent alone.

The subject of one assay is NB12 tumor-initiating cells. In words: IC50 determination, Alamar Blue cell survival/growth assay. To be noted: Homo sapiens, read-out: NB12 IC50 (nM). The class given is cell-based, human. How it is done:
FIG. 4A-4E, according to one embodiment of the invention, presents the IC50 values that were determined for the 64 selected candidate compounds. […] Tumor-initiating cells and normal cells were treated with 10 serial dilutions of compounds (5 μM to 9 nM). […] (FS90=normal cells; NB12=tumor-initiating cells).
FIG. 6A-6FF, according to one embodiment of the invention, presents IC50 values for 32 selected compounds from the LOPAC and Prestwick collections. Tumor-initiating cells (NB12) and normal cells (FS90) were treated with 10 serial dilutions of compounds ranging from 5 μM to 9 nM. Cell survival/growth was assayed using Alamar Blue and the percentage of control Alamar Blue signal was plotted versus log[compound] nM. IC50 values for NB12 are given above each plot.
FIG. 7A-7FF, according to one embodiment of the invention, represents IC50 values determined for 32 selected compounds from the LOPAC, Prestwick, and Spectrum collections. Tumor-initiating cells (NB12) and normal cells (FS90) were treated with 10 serial dilutions of compounds ranging from 5 μM to 9 nM. Cell survival/growth was assayed using Alamar Blue and the percentage of control Alamar Blue signal was plotted versus log[compound] nM (FS90 in dashed line, NB12 in bolded line). IC50 values for NB12 and FS90 are given beside each plot.
To identify compounds that suppress the growth and survival of neuroblastoma (NB) tumor-initiating cells and not nontransformed normal cells (SKPs), a cell-based assay was established and used in which NB tumor-initiating cells from a multiple relapse NB patient (NB12, passage 6-17) and normal SKPs (FS90, passage 2-5) were tested in parallel to detect specific alterations of cell viability/proliferation. For each cell type, cells were passaged 5 days prior to screening. Three thousand (3000) cells in 100 µL SKPs growth media (B27, bFGF, EGF, P/S, fungizone in DMEM:F12 with 50% hFS conditioned media) were robotically plated in uncoated 96 well plates and treated with test compound for 30 hours, prior to a 24 hour incubation in the presence of Alamar Blue and subsequent fluorometric reading.
Thirty-two (32) compounds were selected for IC50 determinations using FS90, FS105, and NB12. IC50 for the remaining compounds of interest will be tested at a later date (in combination with hits from additional libraries).
(In general: Resazurin is reduced to fluorescent resorufin, in cell work by metabolically active cells.)
By IC50 is commonly meant the point on the concentration scale where inhibition reaches its midpoint. Regarding `C[C@H]1O[C@@H](O[C@H]2[C@@H](O)C[C@H](O[C@H]3[C@@H](O)C[C@H](O[C@H]4CC[C@@]5(C)[C@H](CC[C@@H]6[C@@H]5C[C@@H](O)[C@]5(C)[C@@H](C7=CC(=O)OC7)CC[C@]65O)C4)O[C@@H]3C)O[C@@H]2C)C[C@H](O)[C@@H]1O` [Digoxin], the IC50 is 542 nM. On to `C[n+]1cc2c3c(ccc2c2ccc4cc5c(cc4c21)OCO5)OCO3` [Sanguinarine chloride], for which the IC50 worked out at 1800 nM.

The assay is the same for the next values; noted with them: Homo sapiens; NB12; 10 serial dilutions 5 μM to 9 nM; Alamar Blue; read-out: NB12 IC50.
`CC[C@@]1(O)C[C@H](O[C@H]2C[C@H](N(C)C)[C@H](O)[C@H](C)O2)c2c(cc3c(c2O)C(=O)c2c(O)cccc2C3=O)[C@H]1C(=O)OC` [AKLAVINE HYDROCHLORIDE]: the IC50 was found to be 778 nM. On to `COc1cc(NS(C)(=O)=O)ccc1Nc1c2ccccc2nc2ccccc12` [AMSACRINE HYDROCHLORIDE], for which the IC50 is 1210 nM. As for `CCN(CC)Cc1cc(Nc2ccnc3cc(Cl)ccc23)ccc1O` [Amodiaquin dihydrochloride dihydrate], the IC50 is 790 nM. Same read-out and setting: in the case of `N=c1ccn2c(n1)O[C@H]1[C@H](O)[C@@H](CO)O[C@H]12` [Ancitabine hydrochloride] it was 520 nM. As to `Cc1cc(C2CCCCC2)n(O)c(=O)c1` [CICLOPIROX OLAMINE], the IC50 is 2050 nM. Consider `C[C@@H]1O[C@@H](O[C@H]2CC[C@]3(C=O)[C@H]4CC[C@]5(C)[C@@H](C6=CC(=O)OC6)CC[C@]5(O)[C@@H]4CC[C@]3(O)C2)[C@H](O)[C@H](O)[C@H]1O` [CONVALLATOXIN], for which the IC50 is 73.2 nM. For `C=C1C(=O)O[C@H]2C[C@@H]1C(OC(C)=O)C/C(C)=C/CC/C(C)=C/CC[C@@]2(C)O` (some centres unmarked) [CRASSIN ACETATE], the IC50 came to 1950 nM. As to `COc1ccc2c(c[n+](C)c3c4cc5c(cc4ccc23)OCO5)c1OC` [Chelerythrine chloride], the IC50 amounted to 2550 nM. In the case of `CC(C)/N=c1\cc2n(-c3ccc(Cl)cc3)c3ccccc3nc-2cc1Nc1ccc(Cl)cc1` [Clofazimine], the IC50 came to 1420 nM. Same read-out and setting: in the case of `CC(C)=CCCC1(C)C=Cc2c(O)c3c(c(CC=C(C)C)c2O1)OC12C(=CC4CC1C(C)(C)OC2(C/C=C(/C)C(=O)O)C4O)C3=O` (centres unmarked) [DIHYD[…]] it was 1690 nM; in that of `Cc1cc(N)c2ccccc2[n+]1CCCCCCCCCC[n+]1c(C)cc(N)c2ccccc21` [Dequalinium dichloride], 3620 nM; in that of `CS(=O)(=O)CCCCN=C=S` [ERYSOLIN], 3280 nM.

As to `COc1cc([C@@H]2c3cc4c(cc3[C@@H](O[C@@H]3O[C@@H]5CO[C@@H](C)O[C@H]5[C@H](O)[C@H]3O)[C@H]3COC(=O)[C@H]23)OCO4)cc(OC)c1O` [Etoposide], the IC50 was 694 nM. Turning to `CC(C)=CCC[C@]1(C)C=Cc2c(O)c3c(c(CC=C(C)C)c2O1)O[C@]12C(=C[C@@H]4C[C@H]1C(C)(C)O[C@@]2(C/C=C(/C)C(=O)O)C4=O)C3=O` [GAMBOGIC ACID], the IC50 amounted to 1700 nM. `CC(=O)[C@]1(O)Cc2c(O)c3c(c(O)c2[C@@H](O[C@H]2C[C@H](N)[C@H](O)[C@H](C)O2)C1)C(=O)c1ccccc1C3=O` [Idarubicin]: the IC50 is 204 nM. Turning to `Cc1cccc(CN2CCN(C(c3ccccc3)c3ccc(Cl)cc3)CC2)c1` (centres unmarked) [MECLIZINE HYDROCHLORIDE], the IC50 is 2540 nM. In the case of `CC[N+](CC)(CC)CCOc1ccc(/C=C/c2ccccc2)cc1` [MG 624], the IC50 is 848 nM.

As to `O=C1c2c(O)ccc(O)c2C(=O)c2c(NCCNCCO)ccc(NCCNCCO)c21` [MITOXANTHRONE HYDROCHLORIDE], the IC50 was determined as 60.5 nM. In the case of `C[C@@H]1O[C@@H](O[C@H]2C[C@@H](O)[C@]3(CO)[C@H]4[C@H](O)C[C@]5(C)[C@@H](C6=CC(=O)OC6)CC[C@]5(O)[C@@H]4CC[C@]3(O)C2)[C@H](O)[C@H](O)[C@H]1O` [Ouabain], the IC50 worked out at 123 nM. Same read-out and setting: in the case of `CO[C@H]1C[C@H](O[C@H]2CC[C@]3(C)[C@H]4CC[C@]5(C)[C@@H](C6=CC(=O)OC6)CC[C@]5(O)[C@@H]4CC[C@]3(O)C2)O[C@H](C)[C@H]1O` [PERIPLOCYMARIN] it was 2700 nM; in that of `CO[C@H]1[C@H](O)[C@H](O[C@H]2CC[C@@]3(C=O)[C@H](CC[C@@H]4[C@@H]3CC[C@]3(C)[C@@H](C5=CC(=O)OC5)CC[C@]43O)C2)O[C@@H](C)[C@@H]1O` [PERUVOSIDE], 222 nM; in that of `COc1cc([C@@H]2c3cc4c(cc3[C@H](O)[C@H]3COC(=O)[C@H]23)OCO4)cc(OC)c1OC` [Podophyllotoxin], 135 nM.

On to `CCN(CC)CCCC(C)Nc1c2ccc(Cl)cc2nc2ccc(OC)cc12` (centres unmarked) [Quinacrine dihydrochloride], for which the IC50 was 2560 nM.

On to `COc1cc([C@@H]2c3cc4c(cc3[C@@H](O[C@@H]3O[C@@H]5CO[C@@H](c6cccs6)O[C@H]5[C@H](O)[C@H]3O)[C@H]3COC(=O)[C@H]23)OCO4)cc(OC)c1O` [TENIPOSIDE], for which the IC50 was determined as 706 nM. The same measure, in the same setting: in the case of `CC[C@]1(O)C[C@H]2CN(CCc3c([nH]c4ccccc34)[C@@](C(=O)OC)(c3cc4c(cc3OC)N(C=O)[C@H]3[C@@](O)(C(=O)OC)[C@H](OC(C)=O)[C@]5(CC)C=CCN6CC[C@]43[C@@H]65)C2)C1` [Vincristine sulfate] it was 62 nM.

Still in this assay, the particulars now being: NB12; 10 serial dilutions 5 μM to 9 nM; Alamar Blue; read-out: NB12 IC50.
For the compound `Nc1nc(O)c2[nH]nnc2n1` [Azaguanine-8], the IC50 stood at 331 nM. In the case of `CC(C)CCC[C@@H](C)[C@H]1CC[C@H]2[C@@H]3C[C@@H](O)[C@@]4(O)C[C@@H](O)CC[C@]4(C)[C@H]3CC[C@]12C` [CHOLESTAN-3beta.5alpha.6beta-TRIOL], the half-inhibitory concentration (IC50) came to 2410 nM.

As for `CO[C@H]1C=C[C@@]23c4cc5c(cc4CN(C[C@@H]2O)[C@H]3C1)OCO5` [CRINAMINE], the IC50 turned out to be 1740 nM.

In the case of `CC[C@@]1(O)C(=O)OCc2c1cc1n(c2=O)Cc2cc3ccccc3nc2-1` [Camptothecine (S.+)], the IC50 amounted to 183 nM. `C[C@@H]1O[C@@H](O[C@H]2C[C@@H](O)[C@]3(CO)[C@H]4[C@H](O)C[C@]5(C)[C@@H]([C@@H]6COC(=O)C6)CC[C@]5(O)[C@@H]4CC[C@]3(O)C2)[C@H](O)[C@H](O)[C@H]1O` [Dihydroouabain]: the IC50 came out at 1540 nM. Take `COc1cc([C@@H]2c3cc4c(c(O)c3C[C@H]3COC(=O)[C@@H]32)OCO4)cc(OC)c1OC` [beta-PELTATIN]: the IC50 worked out at 1950 nM. With Dequalinium analog. C-14 linker, the IC50 was 1110 nM. For the compound Vinblastine sulfate salt, the IC50 is 113 nM.
